In patent US20030077653A1, “Method for the identification of active site protease inactivators” (The University of Georgia Research Foundation, Inc., priority 2000, published 2003):
Residues, ends and D or L forms follow the SMILES beside them. *: point of attachment. AFC = O=c1cc(C(F)(F)F)c2ccc(N*)cc2o1; Cbz = O=C(OCc1ccccc1)*; Boc = CC(C)(C)OC(=O)*

Columns and labels:
Format in all cases: biochemical
[1] = system: purified Taenia solium cysteine protease; assay: Competitor assay: vehicle inhibition of cleavage of high Vmax AFC substrate cocktails (Step III); details: purified protease; P = inhibition with first (1.4%) cocktail, M = inhibition with last (7.4%) cocktail
Protocol: (We employed “Vmax” here although Kcat could also be used). Due to the lower number of substrates, a percentage was not chosen for the “BOTTOM %” substrates. Alternately, all substrates which were not cleaved as determined by a value of 10 μM/hr or less, were chosen to be tested in this step for competitive ability. From this point forth, the term “vehicle” will represent low Vmax substrates that were capable of inhibiting cleavage of the percent cocktails. In this instance, we tested for “vehicles” which inhibited cleavage of the TOP 1.4% cocktail (they were delivered into the active site). Based upon our results from Step II, the top 1.4% cocktail was composed of Z-Phe-Arg-AFC, the highest cleaved substrate.
The experiment began with a competitor test between the noncleaved low Vmax substrates and the highest Vmax substrate, Z-Phe-Arg-AFC. Concentrations were varied between the low Vmax substrate and Z-Phe-Arg-AFC, as described above under “refinement of assay” until a relative inhibition profile was obtained.
The mixture was allowed to equilibrate for a period of 30 minutes. Finally, active purified enzyme was added to the tubes at a concentration which was always 50 times less than the concentration of the high and low Vmax substrates, in order to insure saturation conditions. This concentration varied from purification to purification and the amount added depended upon the yield and specific activity of the purified protease.
Positive controls were set up similarly as described for test controls, except that solvent was added in substitution for the low Vmax substrate (in a volume equal to the low Vmax volume addition). All of the substrates could be dissolved in dimethylsulfoxide (DMSO), and therefore, this was the solvent of choice. Negative controls were set up by adding the low Vmax and the high Vmax substrate in a tube without the protease. All potential non-proteolytic induced liberation of AFC was therefore controlled for in this tube (a feature which also insured stability of the AFC substrates, since these substrates will freely liberate AFC when unstable). A tube set will be established for this negative control.
All controls were set up in triplicate, and experiments repeated a minimum of five times. The assays were incubated at 37° C., for 18 hours overnight.
Percent inhibition was calculated as: [formula]
A 2.9% cocktail of the high Vmax substrates was made. This was composed of Z-FR-AFC and the second most cleaved substrate, Z-FAR-AFC. The vehicles promoted from the initial screenings above were again tested for competitive inhibition ability with the new cocktails. Their concentrations were set identically to those which were “fixed” in the previous protocols. […]

Taenia solium crude mix = assay: Competitor assay with crude mix as source of the protease (Step III)
Protocol: In order to prepare the Taenia solium “crude mix” , dry frozen Taenia solium cysts were obtained from 6-12 month old cysticercotic pigs from villages in an endemic area of porcine cysticercosis in Mexico. Metacestodes were carefully dissected from the parasitized tissues, washed three times with PBS, and lyophilized. Parasite extracts were prepared by suspending 0.1 grams of dry frozen cysts in 10 ml of extraction buffer (0.4 M citrate, pH 4.9). The cysts were vortexed for three five-minute intervals with intermittent incubations (5 min) at 4 ° C. Particulate material was removed by centrifugation (20,000 x g, 120 min) and the resulting soluble fraction filtered ([…]). In assay buffers, the detectable amount of the crude mix, as described above, was employed and incubated with the target substrates.
One of the most intriguing findings in this experiment was that a highly similar inhibition pattern for the competitor assay was noted when the crude mix was employed as the source of the target protease. Although there were some variations in the effects of inhibitor dilution, the most highly ranked vehicles remained inhibitory consistently in comparison to the profile with the target protease. The relative profile and composition of the top tiers of vehicles was identical. Z-LLL-AFC, Z-LLY-AFC, Mu-LY-AFC, Boc-VPR-AFC, Z-SY-AFC, Z-RR-AFC, Z-FLF-AFC, Z-LGR-AFC consistently presented as the top eight vehicles (FIG. 5b), respectively, based upon their V values (Table 2). […] It was notable that the three vehicles had very similar V values. […] As was mentioned, this vehicle along with Z-LLL-AFC and Z-LLY-AFC, were consistently the most inhibitory vehicles. The V values of the most inhibitory vehicle series are shown below in Table 2. Again, a clear break between the first and second tier vehicles could be noted with the V value.

[2] = system: purified Taenia solium cysteine protease; assay: Screen of AFC-linked synthetic substrates for cleavage (Step II); details: pH 4.9, 18 h, 37° C
Protocol: In this step, the most efficacious substrate for detection of the cysteine protease (high Kcat substrate) was determined in vitro along with those substrates which were not well cleaved (low kcat substrates). From this point forth, the following conditions refer to all assays: “assay buffer” refers to 0.4 M Citrate, pH 4.9 (the pH optima of the protease). Incubation time was 18 hours at 37° C. These conditions were determined by our preliminary data to be best for kinetic evaluation of the protease. […] The experiments were conducted in […] Borosilicate mini-culture tubes (Fisher Scientific), and a fluorometer (Turner) was employed for detection of AFC cleavage.
Approximately 1 ug (or a proteolytically detectable amount) of the purified target cysteine protease was incubated individually, with 1 μg of each of the available substrates in 500 μL of assay buffer. During this setup, the substrate was pre-incubated in the assay buffer for a short period of time (20 minutes) in order to reach an equilibrated status before the addition of the protease. Cleavage assessments were based upon the property of the protease to cleave synthetic peptide substrates linked at the C-terminus to 7-Amino-4-Trifluoromethyl Coumarin (AFC) as previously described. AFC linked tripeptides, dipeptides, and monopeptides, (with a variety of permutations at P3-P1) were available from Enzyme Systems Products (Livermore, CA), and were used as the source of the subset. Following incubation of enzyme preparations overnight (18 h, 37 ° C.) with peptide in assay buffer (Citrate, pH 4.9, supplemented with 0.01 M cysteine), free AFC concentrations were measured fluorometrically (excitation […]). The proteolytic cleavage released the AFC group, which was measurable as a free molecule by a standard fluorometer and converted into molar quantities, based upon a previously established standard curve. The simplicity of AFC detection by the fluorometer was a key factor which quickened and simplified the procedures.
In the assay, 1 ug of the purified Taenia cysteine protease was added to a saturating amount of Z-Phe-Arg-AFC (4×10^−5 M) in assay buffer. The experiment was conducted in triplicate and repeated at least 5 times until we were certain that variability in AFC cleavage was not statistically significant.
Vmax was calculated for the cleavage of substrates by the purified target protease and Vmax was calculated for substrates cleaved by the crude mix protease using conventional kinetic modeling calculations already described in the art.

[3] = system: purified Taenia solium cysteine protease; assay: Protease inactivator inhibition assay (EC100, Ki; Step VII)
Text: Once the protease inactivators were synthesized in the organic laboratory, they were to be tested for the lowest efficacious concentrations at which they induced 100% inhibition of the target protease (EC100). The top percent cocktail that was employed in the final vehicle selection step of Step III was employed as the source of competition for the inhibitors. In this case, this was the […] which was comprised of Z-FR-AFC, Z-FAR-AFC, Z-AP-AFC, Z-AAK-AFC, and Z-VLR-AFC. The final result would be a ranking of transition state candidate protease inactivators with a high ranking directly correlating to a low ECIoo value. The following steps describe the assay:
Step A: Initial Screening. To set up the test control, each protease inactivator was first incubated with the 5% cocktail (which provided the final differentiation of vehicles in Step III). To begin with, the protease inactivator was incubated at a concentration of 3×10^−9M in 500 μl of assay buffer (0.2 M Citrate, pH 4.9 supplemented with 10mM L-cysteine). This concentration was determined, after a series of inhibitor dilutions identified, to be the best inhibitor concentration at which a differentiation in inhibitor potential could be noted. Next, a concentration equal to 4×10^−5M for each of the individual cocktail components, was added to the mix. The components were allowed to equilibrate for a period of 30 minutes. […]
Percent inhibition was calculated as: [formula] […]
Step C: Determination ofInhibitor Ki and mode of inhibition, and re-ranking of EC100 list with inhibitor Ki. Ki of each of the top ranked protease inactivators, based upon low EC100 values, was assessed next for the top 5 EC100 inhibitors.
In order to determine Ki, all of the high Vmax cocktail substrates were employed for Ki determination (since Ki of the inhibitor for the enzyme is the same regardless of the substrate). To insure the highest accuracy, Ki was to be determined upon a minimum of at least three of the high Kcat substrates. […]

Row | Structure (SMILES) | V Value (vehicle inhibition quotient, V=P*M) [1] | V Value (vehicle inhibition quotient, V=P*M) (Taenia solium crude mix) | cleavage as substrate (Vmax) [2] | further results
1 | CC(C)C[C@H](NC(=O)OC(C)(C)C)C(=O)NCC(=O)N[C@@H](CCCNC(=N)N)C(=O)Nc1ccc2c(C(F)(F)F)cc(=O)oc2c1 [B-LGR-AFC] (Boc-Leu-Gly-Arg-{AFC}) | 0.07 | 0.02 | – | –
2 | CC(C)[C@H](NC(=O)OC(C)(C)C)C(=O)N1CCC[C@H]1C(=O)N[C@@H](CCCNC(=N)N)C(=O)Nc1ccc2c(C(F)(F)F)cc(=O)oc2c1 [B-VPR-AFC, Boc-Val-Pro-Arg-AFC] (Boc-Val-Pro-Arg-{AFC}) | – | – | noncleavable | –
3 | CC(C)C[C@H](NC(=O)[C@H](Cc1ccccc1)NC(=O)OCc1ccccc1)C(=O)N[C@@H](Cc1ccccc1)C(=O)Nc1ccc2c(C(F)(F)F)cc(=O)oc2c1 [Z-FLF-AFC] (Cbz-Phe-Leu-Phe-{AFC}) | 0.100 | 0.10 | – | –
4 | CC(C)C[C@H](NC(=O)OCc1ccccc1)C(=O)NCC(=O)N[C@@H](CCCNC(=N)N)C(=O)Nc1ccc2c(C(F)(F)F)cc(=O)oc2c1 [Z-LGR-AFC, Z-Leu-Gly-Arg-AFC] (Cbz-Leu-Gly-Arg-{AFC}) | – | – | noncleavable | –
5 | CC(C)C[C@@H](/C=C/S(C)(=O)=O)NC(=O)[C@H](CC(C)C)NC(=O)[C@H](CC(C)C)NC(=O)OCc1ccccc1 [Z-LLL-VS, Z-Leu-Leu-Leu-vinylsulfone] | – | – | – | ranking of protease inactivators by inhibition / EC100 [3]: top inhibitors
6 | NC(N)=NCCCC(NC(=O)C(Cc1ccccc1)NC(=O)OCc1ccccc1)C(=O)Nc1ccc2c(C(F)(F)F)cc(=O)oc2c1 (stereo not drawn) [Z-Phe-Arg-AFC] (Cbz-Phe-Arg-{AFC}; configuration not given here) | – | – | highest Vmax | –
7 | NC(N)=NCCC[C@H](NC(=O)OCc1ccccc1)C(=O)N[C@@H](CCCN=C(N)N)C(=O)Nc1ccc2c(C(F)(F)F)cc(=O)oc2c1 [Z-RR-AFC] (Cbz-Arg-Arg-{AFC}) | – | 0.09 | – | –
8 | O=C(N[C@@H](CO)C(=O)N[C@@H](Cc1ccc(O)cc1)C(=O)Nc1ccc2c(C(F)(F)F)cc(=O)oc2c1)OCc1ccccc1 [Z-SY-AFC] (Cbz-Ser-Tyr-{AFC}) | 0.090 | 0.09 | – | –
